Measurements as given in patent publication US12180187B2, “1-phenyl-5-azinylpyrazolyl-3-oxyalkyl acids and their use for controlling unwanted plant growth” (BAYER AKTIENGESELLSCHAFT, priority 2019, dated 2024).

Legend:
ECHCG = assay: Pre-emergence action against ECHCG, 1280 g/ha; format: in vivo, Echinochloa crus-galli; details: visual scoring after about 3 weeks vs untreated controls, 100% = plants have died, 0% = like control plants
Procedure, shortened: (§1)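 In greenhouse pots of sandy loam, sown weed seeds were covered with soil and treated pre-emergence with the compound in water (600 L/ha, 0.5% additive). Efficacy was assessed visually as percent of untreated control after about 3 weeks.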

POAAN [1] = assay: Pre-emergence action against POAAN, 1280 g/ha; format: in vivo, Poa annua; details: visual scoring after about 3 weeks vs untreated controls, 100% = plants have died, 0% = like control plants
Procedure, shortened: as §1

SETVI [2] = assay: Pre-emergence action against SETVI, 1280 g/ha; format: in vivo, Setaria viridis; details: visual scoring after about 3 weeks vs untreated controls, 100% = plants have died, 0% = like control plants
Procedure, shortened: as §1

ABUTH = assay: Pre-emergence action against ABUTH, 1280 g/ha; format: in vivo, Abutilon theophrasti; details: scored visually after about 3 weeks vs untreated controls (100% = plants have died)
Procedure, shortened: as §1

AMARE [3] = assay: Pre-emergence action against AMARE, 1280 g/ha; format: in vivo, Amaranthus retroflexus; details: scored visually after about 3 weeks vs untreated controls (100% = plants have died)
Procedure, shortened: as §1

MATIN = assay: Pre-emergence action against MATIN, 1280 g/ha; format: in vivo, Tripleurospermum inodorum (Matricaria inodora); details: scored visually after about 3 weeks vs untreated controls (100% = plants have died)
Procedure, shortened: as §1

STEME = assay: Pre-emergence action against STEME, 1280 g/ha; format: in vivo, Stellaria media; details: scored visually after about 3 weeks vs untreated controls (100% = plants have died)
Procedure, shortened: as §1

ALOMY = assay: Pre-emergence action at 320 g/ha against ALOMY; format: in vivo, Alopecurus myosuroides; details: scored visually after about 3 weeks vs untreated controls (100% = plants have died)
Procedure, shortened: (§2)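 Percent herbicidal activity was assessed by eye roughly three weeks post-application, comparing with untreated plants. Treatment consisted of applying formulated compound in water plus 0.5% additive to covering soil at 600 l/ha before emergence.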

DIGSA = assay: Pre-emergence action at 320 g/ha against DIGSA; format: in vivo, Digitaria sanguinalis; details: visual scoring after about 3 weeks vs untreated controls
Procedure, shortened: as §2

SETVI [4] = assay: Pre-emergence action at 320 g/ha against SETVI; format: in vivo, Setaria viridis; details: visual scoring after about 3 weeks vs untreated controls
Procedure, shortened: as §2

AMARE [5] = assay: Pre-emergence action at 320 g/ha against AMARE; format: in vivo, Amaranthus retroflexus; details: visual scoring after about 3 weeks vs untreated controls
Procedure, shortened: as §2

POLCO = assay: Pre-emergence action at 320 g/ha against POLCO; format: in vivo, Fallopia convolvulus (Polygonum convolvulus); details: visual scoring after about 3 weeks vs untreated controls
Procedure, shortened: as §2

POAAN [6] = assay: Post-emergence action against POAAN, 1.28 kg/ha; format: in vivo, Poa annua; details: dosage 1280 g/ha, visual rating about 3 weeks after treatment vs untreated controls
Procedure, shortened: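 Greenhouse pot test, sandy loam; weeds sprayed post-emergence at one-leaf stage (2–3 weeks after sowing) with WP or EC formulation plus 0.5% additive, 600 l/ha water. Visual rating after about 3 weeks versus untreated controls, 100% = plants dead, 0% = like control.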

SETVI [7] = assay: Post-emergence action at 320 g/ha against SETVI; format: in vivo, Setaria viridis; details: visual rating about 3 weeks after treatment vs untreated controls
Procedure, shortened: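 Greenhouse-grown plants sprayed post-emergence at the one-leaf stage, 2 to 3 weeks after sowing, with WP or EC formulations plus 0.5% additive at 600 l/ha water, at 320 g/ha. Activity rated visually after about 3 weeks versus untreated controls (100% = plants died, 0% = like control).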

Structure (SMILES) | Pre-emergence action against ECHCG (ECHCG) [%] | Pre-emergence action against POAAN (POAAN [1]) [%] | Pre-emergence action against SETVI (SETVI [2]) [%] | Pre-emergence action against ABUTH (ABUTH) [%] | Pre-emergence action against AMARE (AMARE [3]) [%] | Pre-emergence action against MATIN (MATIN) [%] | Pre-emergence action against STEME (STEME) [%] | Pre-emergence action at 320 g/ha against ALOMY in % (ALOMY) [%] | Pre-emergence action against DIGSA in % (DIGSA) [%] | Pre-emergence action against SETVI in % (SETVI [4]) [%] | Pre-emergence action against AMARE in % (AMARE [5]) [%] | Pre-emergence action against POLCO in % (POLCO) [%] | Post-emergence action against POAAN (POAAN [6]) [%] | Post-emergence action against SETVI in % (SETVI [7]) [%] | also measured
COC(=O)[C@@H](C)Oc1nn(-c2ccccc2F)c(-c2ccnc(F)c2)c1Br [VIII-006] | 100 | 100 | 100 | 90 | 100 | 100 | 100 | 100 | 100 | 100 | 100 | 90 | 100 | 90 | –
CCOC(=O)C(C)Oc1nn(-c2ccccc2F)c(-c2ccc(F)nc2)c1C(F)(F)F (centres unmarked) [VII-066] | 100 | 100 | 100 | – | 100 | 90 | 100 | 100 | 100 | 80 | 100 | 90 | 100 | – | –
CCOC(=O)COc1nn(-c2ccccc2F)c(-c2ccc(F)nc2)c1C [VII-117] | 100 | 100 | 100 | 90 | 100 | 100 | 90 | 100 | 100 | 100 | 100 | 100 | 100 | 80 | –
CCC(Oc1nn(-c2ccccc2F)c(-c2ccc(F)nc2)c1Br)C(=O)OC (centres unmarked) [VII-029] | 100 | 100 | 100 | 90 | 100 | 100 | 100 | 90 | 100 | 90 | 100 | 100 | 100 | – | –
COC(=O)[C@H](C)Oc1nn(-c2cc(F)ccc2F)c(-c2ccc(F)nc2)c1Br [VII-107] | 90 | 100 | 100 | – | 100 | 90 | 100 | 80 | 100 | 100 | 100 | 100 | 100 | 80 | –
COC(=O)C(C)Oc1nn(-c2ccccc2)c(-c2ccc(F)nc2)c1Br (centres unmarked) [VII-026] | 90 | 100 | 100 | 90 | 100 | 90 | 90 | 100 | 100 | 80 | 100 | 100 | 100 | 90 | –
COC(=O)[C@@H](C)Oc1nn(-c2ccccc2F)c(-c2cncnc2)c1Br [VI-011, Methyl (2R)-2-{[4-bromo-1-(2-fluorophenyl)-5-(pyrimidin-5-yl)-1H-pyrazol-3-yl]oxy}propanoate] | – | – | – | 90 | – | – | – | – | – | – | – | – | – | 90 | pest or weed control at 1280 g/ha (ECHCG; Echinochloa crus-galli, 504 h): 100%; pest or weed control at 1280 g/ha (POAAN [1]; Poa annua, 504 h): 100%; pest or weed control at 1280 g/ha (SETVI [2]; Setaria viridis, 504 h): 100%; pest or weed control at 1280 g/ha (AMARE [3]; Amaranthus retroflexus, 504 h): 100%; pest or weed control at 1280 g/ha (MATIN; Tripleurospermum inodorum, 504 h): 90%; pest or weed control at 1280 g/ha (STEME; Stellaria media, 504 h): 100%; pest or weed control at 320 g/ha (ALOMY; Alopecurus myosuroides, 504 h): 100%; pest or weed control at 320 g/ha (DIGSA; Digitaria sanguinalis, 504 h): 100%; pest or weed control at 320 g/ha (SETVI [4]; Setaria viridis, 504 h): 100%; pest or weed control at 320 g/ha (AMARE [5]; Amaranthus retroflexus, 504 h): 100%; pest or weed control at 320 g/ha (POLCO; Fallopia convolvulus, 504 h): 80%; pest or weed control at 1280 g/ha (POAAN [6]; Poa annua, 504 h): 100%
O=C(COc1nn(-c2ccccc2F)c(-c2ccc(F)nc2)c1Br)OCC1CCOC1 (centres unmarked) [VII-091] | 100 | 100 | 100 | 90 | 100 | 100 | 100 | 100 | 100 | 100 | 100 | 100 | 100 | 80 | –
COC(=O)C(C)Oc1nn(-c2ccccc2)c(-c2ccc(F)nc2)c1Br (centres unmarked) [VII-014] | 90 | 100 | 100 | – | 100 | 90 | 100 | 100 | 100 | 100 | 90 | 90 | 100 | 100 | –
COC(=O)CNC(=O)COc1nn(-c2ccccc2F)c(-c2ccc(F)nc2)c1C(F)(F)F [Example X-007] | 100 | 100 | 100 | 90 | 100 | 100 | 100 | 100 | 100 | 100 | 100 | 90 | 100 | 80 | –
CCOC(=O)C(C)Oc1nn(-c2ccccc2F)c(-c2ccc(F)nc2)c1I (centres unmarked) [VII-057] | 100 | 100 | 100 | 90 | 100 | 100 | 100 | 100 | 100 | 90 | 100 | 90 | 100 | 80 | –
